US11253471B2, “Rectal mucosal administration preparation of Pulsatilla chinensis saponin B4 and preparation method therefor” (priority 2018, dated 2022)

Experiments:
[1] = tested on: gentamicin-induced acute kidney injury in rats; assay: Gentamicin-induced acute kidney injury in rats: serum indexes and urinary protein; type: in vivo, SD rats; conditions: for Urinary Protein, 5th day of administration / Urinary Protein, 6th day of administration / Urinary Protein, 7th day of administration / BUN / CREA / TP: by gavage; for BUN / CREA / TP: serum, 7 days
Description: Acute renal failure induced by gentamicin was mainly manifested in the increase of creatinine and urea nitrogen, but the mechanism of gentamicin induced nephrotoxicity was still unclear. In this experiment, two kinds of rectal mucosa administration preparations of Pulsatilla chinensis saponin B4 according to the present invention were infused by anus to observe the preventive and therapeutic effects of tested drugs on gentamicin-induced ARF in rats, and compared with oral (gavage) administration of Pulsatilla chinensis saponin B4.
(§1) Dexamethasone solution: 4 tablets of dexamethasone were ground and dissolved in 100 ml double distilled water, and then diluted to 0.03 mg/ml.
B4 raw powder solution: 2000 mg of B4 raw powder was weighed, ground, and dissolved in 100 ml double distilled water to obtain 20 mg/ml solution.
Rats in experimental groups were intraperitoneally injected with gentamicin sulfate solution at the dose of 140 mg/kg, while the rats in the blank group were intraperitoneally injected with equal volume of normal saline, and the administration was continued for 7 days to make a model.
The animals were randomly divided into blank group; model group; positive drug group (dexamethasone group); B4 gel high, medium, and low dose groups; B4 suppository high, medium, and low dose groups; B4 powder group; 10 animals for each group. Animals in B4 gel groups received the gel by rectum at 0.3 ml/100 g body weight; animals in B4 suppository groups received the suppository by rectum; B4 raw powder group and positive group were given corresponding drugs by gavage according to 10 ml/kg body weight. The model group and the blank group were given the same volume of double distilled water by gavage. The drug was continuously administered for 7 days from the second day of modeling.
Urine proteins were detected by Coomassie brilliant blue method. After isoflurane anesthesia, blood samples were taken from eyeballs of rats. Serum was separated. Total protein (TP), urea nitrogen (BUN), and creatinine (CRE) were detected by automatic biochemical analysis.

[2] = tested on: cisplatin-induced acute kidney injury in mice; assay: Cisplatin-induced acute kidney injury in mice: serum indexes and urinary protein; type: in vivo, ICR mice; conditions: for Urinary Protein / BUN / CREA / TP: by gavage, 4 days; for Urinary Protein: one hour after the last administration; for BUN / CREA / TP: serum
Procedure: After intraperitoneal injection of cisplatin, cisplatin was toxic to different parts of the kidney. It could cause changes in the function and morphology of glomerulus and renal tubules. Cisplatin could cause renal vasoconstriction, reduce renal blood flow and glomerular filtration rate, and thus cause proteinuria, renal function damage and other symptoms. In this study, B4 was administered by different routes (rectum and oral) to observe the preventive and therapeutic effects of B4 on cisplatin-induced ARF in mice.
2.1.2 Reagent: cisplatin, the original solution 5 mg/kg.
as §1
B4 raw powder solution: 1000 mg of B4 raw powder was weighed, ground, and dissolved in 100 ml double distilled water to obtain 10 mg/ml solution.
The model was established by cisplatin at a dosage of […]. The normal group was intraperitoneally injected with normal saline, and the other groups were intraperitoneally injected with cisplatin injection.
The animals were randomly divided into blank group; model group; positive drug group (dexamethasone group); B4 gel high, medium, and low dose groups; B4 suppository high, medium, and low dose groups; B4 raw powder group; 10 animals for each group. Animals in B4 gel groups received the gel by rectum at 0.3 ml/100 g body weight; animals in B4 suppository groups received the suppository by rectum; B4 raw powder group and positive group were given corresponding drugs by gavage according to 20 m/kg body weight. The model group and the blank group were given the same volume of double distilled water by gavage. The drug was continuously administered for 4 days from the day of modeling. Animals were fasted for 16-18 hours before administration on day 4.
One hour after the last administration, urine was collected to measure urine proteins. Blood samples were taken from eyeballs to separate serum. Total protein (TP), urea nitrogen (BUN) and creatinine (Cre) were detected by automatic biochemical analysis.

[3] = gel and suppository by rectum, raw powder oral

In the case of `C=C(C)C1CC[C@]2(C(=O)O[C@@H]3O[C@H](CO[C@@H]4O[C@H](CO)[C@@H](O[C@@H]5O[C@@H](C)[C@H](O)[C@@H](O)[C@H]5O)[C@H](O)[C@H]4O)[C@@H](O)[C@H](O)[C@H]3O)CC[C@]3(C)[C@H](CC[C@@H]4[C@@]5(C)CC[C@H](OC6OC[C@H](O)[C@H](O)[C@H]6O[C@@H]6O[C@@H](C)[C@H](O)[C@@H](O)[C@H]6O)[C@@](C)(CO)[C@@H]5CC[C@]43C)[C@@H]12` (stereo partly shown) [B4 raw powder, Pulsatilla chinensis saponin B4], the “Urinary Protein, 5th day of administration” value ([1]; 200 mg/kg) is reported as 4.86 ± 1.22 mg/mL, the “Urinary Protein, 6th day of administration” value ([1]; 200 mg/kg) is reported as 5.18 ± 1.15 mg/mL and the “Urinary Protein, 7th day of administration” value ([1]; 200 mg/kg) is reported as 5.38 ± 0.92 mg/mL. The “effect on renal function (creatinine and urea nitrogen), conclusion in words” value [1, 3] was “had a tendency to improve the renal function”, the BUN ([1]; 200 mg/kg) was 126.4 mg/dL and the CREA ([1]; 200 mg/kg) was 268.7 ± 56.2 µmol/L. For the same compound, the TP ([1]; 200 mg/kg) was 53.2 ± 4.3 g/L, the “Urinary Protein” value ([2]; 400 mg/kg) was 1.55 mg/mL and the “effect on renal function, conclusion in words” value [2, 3] was “no significant difference compared with the model group”. It also gave a BUN ([2]; 400 mg/kg) of 55.86 mg/dL, a CREA ([2]; 400 mg/kg) of 38.11 ± 9.56 µmol/L and a TP ([2]; 400 mg/kg) of 46.12 ± 2.27 g/L.

In the case of `C[C@@H]1C[C@H]2[C@@H]3CCC4=CC(=O)C=C[C@]4(C)[C@@]3(F)[C@@H](O)C[C@]2(C)[C@@]1(O)C(=O)CO` [Dexamethasone, reference compound], the “Urinary Protein, 5th day of administration” value ([1]; 0.3 mg/kg) is reported as 5.15 ± 0.89 mg/mL, the “Urinary Protein, 6th day of administration” value ([1]; 0.3 mg/kg) is reported as 5.52 ± 1.36 mg/mL and the “Urinary Protein, 7th day of administration” value ([1]; 0.3 mg/kg) is reported as 5.63 ± 0.58 mg/mL. It also gave a BUN ([1]; 0.3 mg/kg) of 79.3 ± 33.6 mg/dL, a CREA ([1]; 0.3 mg/kg) of 83.2 ± 31.9 µmol/L and a TP ([1]; 0.3 mg/kg) of 65.7 ± 5.8 g/L. For the same compound, the “Urinary Protein” value ([2]; 0.6 mg/kg) was 1.00 mg/mL, the BUN ([2]; 0.6 mg/kg) was 42.97 mg/dL and the CREA ([2]; 0.6 mg/kg) was 30.10 µmol/L. For the same compound, the TP ([2]; 0.6 mg/kg) was 52.90 g/L.
